Patent publication US20250092043A1, “Kinase Inhibitors and Degraders” (Incyte Corporation, priority 2023, published 2025)

These compounds were tested against T1, JAK2 (Homo sapiens, UniProt O60674, V617F) (assay: Western blot quantitation of JAK2 degradation in SET2 cells). Settings: 5 μM compound, 8 hours treatment, western blot densitometry vs. DMSO vehicle.
T1 construct: their effect on JAK2 protein degradation in SET2 cells; host or cells: SET2 cells (human essential thrombocythemia)
Assay type: cell-based
How it was run: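 SET2 cells (JAK2 V617F, ~82% mutant) treated 8 h at 37° C with 0.5–10 uM compound, ±20 uM MG-132 at top dose. JAK2 measured by western blot densitometry relative to DMSO and graded into degradation bins (A–E).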

T1 sequence (O60674 whole entry V617F): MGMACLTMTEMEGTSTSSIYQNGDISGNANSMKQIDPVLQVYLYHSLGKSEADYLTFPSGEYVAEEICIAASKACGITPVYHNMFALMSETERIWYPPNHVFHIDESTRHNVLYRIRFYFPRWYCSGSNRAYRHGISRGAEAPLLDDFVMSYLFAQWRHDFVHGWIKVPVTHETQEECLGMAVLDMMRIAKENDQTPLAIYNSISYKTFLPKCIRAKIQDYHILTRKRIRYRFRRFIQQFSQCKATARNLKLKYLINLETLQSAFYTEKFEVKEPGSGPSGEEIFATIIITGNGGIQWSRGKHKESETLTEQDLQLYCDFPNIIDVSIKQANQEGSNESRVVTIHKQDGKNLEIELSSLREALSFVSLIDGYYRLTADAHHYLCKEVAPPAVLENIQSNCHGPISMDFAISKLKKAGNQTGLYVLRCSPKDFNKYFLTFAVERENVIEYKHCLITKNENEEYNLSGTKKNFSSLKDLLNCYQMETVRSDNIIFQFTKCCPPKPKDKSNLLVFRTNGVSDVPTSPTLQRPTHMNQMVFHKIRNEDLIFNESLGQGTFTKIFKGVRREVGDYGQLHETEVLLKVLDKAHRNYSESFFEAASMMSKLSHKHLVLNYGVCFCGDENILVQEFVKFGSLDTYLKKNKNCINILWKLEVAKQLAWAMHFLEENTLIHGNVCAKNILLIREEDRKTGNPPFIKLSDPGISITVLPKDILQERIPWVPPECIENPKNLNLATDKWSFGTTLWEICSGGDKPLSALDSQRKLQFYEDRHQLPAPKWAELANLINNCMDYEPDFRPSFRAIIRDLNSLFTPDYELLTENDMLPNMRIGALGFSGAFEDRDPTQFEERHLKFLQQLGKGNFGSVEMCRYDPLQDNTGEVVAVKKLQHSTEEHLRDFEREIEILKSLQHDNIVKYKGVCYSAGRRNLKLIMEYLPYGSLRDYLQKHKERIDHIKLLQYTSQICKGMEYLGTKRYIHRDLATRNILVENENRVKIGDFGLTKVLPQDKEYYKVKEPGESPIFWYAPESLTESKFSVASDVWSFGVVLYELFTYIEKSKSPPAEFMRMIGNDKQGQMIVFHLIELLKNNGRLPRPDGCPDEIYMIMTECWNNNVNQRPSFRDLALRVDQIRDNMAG

Row | Structure (SMILES) | JAK2 % Degradation in SET2
1 | COC(=O)N[C@@H]1CC[C@@H](n2c(=O)n(C)c3cnc4[nH]c(-c5ccc(C(=O)N6CCN(c7ccc8c(c7)C(=O)N(C7CCC(=O)NC7=O)C8=O)CC6)cc5)c(-c5ccc6c(cnn6C(C)C)c5)c4c32)C1 (stereo partly drawn) [Example 62, Methyl((1R,3R)-3-(7-(4-(4-(2-(2,6-dioxopiperidin-3-yl)-1,3-dioxoisoindolin-5-yl)piperazine-1-carbonyl)phenyl)-8-(1-isopropyl-1H-indazol-5-yl)-3-methyl-2-oxo-3,6-dihydroimidazo[4,5-d]pyrrolo[2,3-b]pyridin-1(2H)-yl)cyclopentyl)carbamate] | E (E<10%)
2 | COC(=O)N[C@@H]1CC[C@@H](n2c(=O)n(C)c3cnc4[nH]c(-c5ccc(C(=O)N6CCC(CN7CCN(c8cccc9c8C(=O)N(C8CCC(=O)NC8=O)C9)CC7)CC6)cc5)c(-c5ccc6c(cnn6C(C)C)c5)c4c32)C1 (stereo partly drawn) [Example 63, Methyl((1R,3R)-3-(7-(4-(4-((4-(2-(2,6-dioxopiperidin-3-yl)-3-oxoisoindolin-4-yl)piperazin-1-yl)methyl)piperidine-1-carbonyl)phenyl)-8-(1-isopropyl-1H-indazol-5-yl)-3-methyl-2-oxo-3,6-dihydroimidazo[4,5-d]pyrrolo[2,3-b]pyridin-1(2H)-yl)cyclopentyl)carbamate] | C (C: ≥20% to <40% degradation)

Same assay, conditions: 10 μM compound, 8 hours treatment, western blot densitometry vs. DMSO vehicle

Row | Structure (SMILES) | JAK2 % Degradation in SET2
3 | CN[C@@H](C)C(=O)N[C@H](C(=O)N1C[C@@H](NC(=O)[C@H]2CC[C@H](CNC(=O)c3ccc(-c4[nH]c5ncc6c(c5c4-c4ccc5c(cnn5C(C)C)c4)n([C@@H]4CC[C@@H](NC(=O)OC)C4)c(=O)n6C)cc3F)CC2)C[C@H]1C(=O)N[C@@H]1CCCc2ccccc21)C1CCCCC1 [Example 47, Methyl((1R,3R)-3-(7-(4-((((trans)-4-(((3S,5S)-1-((S)-2-cyclohexyl-2-((S)-2-(methylamino)propanamido)acetyl)-5-(((R)-1,2,3,4-tetrahydronaphthalen-1-yl)carbamoyl)pyrrolidin-3-yl)carbamoyl)cyclohexyl)methyl)carbamoyl)-3-fluorophenyl)-8-(1-isopropyl-1H-indazol-5-yl)-3-methyl-2-oxo-3,6-dihydroimidazo[4,5-d]pyrrolo[2,3-b]pyridin-1(2H)-yl)cyclopentyl)carbamate] | C (C: ≥20% to <40% degradation)
4 | CN[C@@H](C)C(=O)N[C@H](C(=O)N1C[C@@H](NC(=O)COCCOCCNC(=O)c2ccc(-c3[nH]c4ncc5c(c4c3-c3ccc4c(cnn4C(C)C)c3)n([C@@H]3CC[C@@H](NC(=O)OC)C3)c(=O)n5C)cc2F)C[C@H]1C(=O)N[C@@H]1CCCc2ccccc21)C1CCCCC1 [Example 51, Methyl((1R,3R)-3-(7-(4-((2-(2-(2-(((3S,5S)-1-((S)-2-cyclohexyl-2-((S)-2-(methylamino)propanamido)acetyl)-5-(((R)-1,2,3,4-tetrahydronaphthalen-1-yl)carbamoyl)pyrrolidin-3-yl)amino)-2-oxoethoxy)ethoxy)ethyl)carbamoyl)-3-fluorophenyl)-8-(1-isopropyl-1H-indazol-5-yl)-3-methyl-2-oxo-3,6-dihydroimidazo[4,5-d]pyrrolo[2,3-b]pyridin-1(2H)-yl)cyclopentyl)carbamate] | B (B: ≥40% to <60% degradation)
5 | COC(=O)N[C@@H]1CC[C@@H](n2c(=O)n(C)c3cnc4[nH]c(-c5ccc(C(=O)N6CCC(CC(=O)Nc7ccc8c(c7)CN(C7CCC(=O)NC7=O)C8=O)CC6)c(F)c5)c(-c5ccc6c(cnn6C(C)C)c5)c4c32)C1 (stereo partly drawn) [Example 53, Methyl((1R,3R)-3-(7-(4-(4-(2-((2-(2,6-dioxopiperidin-3-yl)-1-oxoisoindolin-5-yl)amino)-2-oxoethyl)piperidine-1-carbonyl)-3-fluorophenyl)-8-(1-isopropyl-1H-indazol-5-yl)-3-methyl-2-oxo-3,6-dihydroimidazo[4,5-d]pyrrolo[2,3-b]pyridin-1(2H)-yl)cyclopentyl)carbamate] | C (C: ≥20% to <40% degradation)
6 | COC(=O)N[C@@H]1CC[C@@H](n2c(=O)n(C)c3cnc4[nH]c(-c5ccc(C(=O)NC[C@H]6CC[C@H](C(=O)Nc7ccc8c(c7)CN(C7CCC(=O)NC7=O)C8=O)CC6)c(F)c5)c(-c5ccc6c(cnn6C(C)C)c5)c4c32)C1 (stereo partly drawn) [Example 54, Methyl((1R,3R)-3-(7-(4-((((trans-)-4-((2-(2,6-dioxopiperidin-3-yl)-1-oxoisoindolin-5-yl)carbamoyl)cyclohexyl)methyl)carbamoyl)-3-fluorophenyl)-8-(1-isopropyl-1H-indazol-5-yl)-3-methyl-2-oxo-3,6-dihydroimidazo[4,5-d]pyrrolo[2,3-b]pyridin-1(2H)-yl)cyclopentyl)carbamate] | C (C: ≥20% to <40% degradation)
7 | COC(=O)N[C@@H]1CC[C@@H](n2c(=O)n(C)c3cnc4[nH]c(-c5ccc(C(=O)N6CCC(C(=O)Nc7ccc8c(c7)CN(C7CCC(=O)NC7=O)C8=O)CC6)c(F)c5)c(-c5ccc6c(cnn6C(C)C)c5)c4c32)C1 (stereo partly drawn) [Example 58, Methyl((1R,3R)-3-(7-(4-(4-((2-(2,6-dioxopiperidin-3-yl)-1-oxoisoindolin-5-yl)carbamoyl)piperidine-1-carbonyl)-3-fluorophenyl)-8-(1-isopropyl-1H-indazol-5-yl)-3-methyl-2-oxo-3,6-dihydroimidazo[4,5-d]pyrrolo[2,3-b]pyridin-1(2H)-yl)cyclopentyl)carbamate] | E (E<10%)
8 | COC(=O)N[C@@H]1CC[C@@H](n2c(=O)n(C)c3cnc4[nH]c(-c5ccc(C(=O)N6CCC(C(=O)Nc7ccc8c(c7)CN(C7CCC(=O)NC7=O)C8=O)CC6)cc5)c(-c5ccc6c(cnn6C(C)C)c5)c4c32)C1 (stereo partly drawn) [Example 60, Methyl((1R,3R)-3-(7-(4-(4-((2-(2,6-dioxopiperidin-3-yl)-1-oxoisoindolin-5-yl)carbamoyl)piperidine-1-carbonyl)phenyl)-8-(1-isopropyl-1H-indazol-5-yl)-3-methyl-2-oxo-3,6-dihydroimidazo[4,5-d]pyrrolo[2,3-b]pyridin-1(2H)-yl)cyclopentyl)carbamate] | C (C: ≥20% to <40% degradation)
9 | COC(=O)N[C@@H]1CC[C@@H](n2c(=O)n(C)c3cnc4[nH]c(-c5ccc(C(=O)N6CCC(CC(=O)Nc7ccc8c(c7)CN(C7CCC(=O)NC7=O)C8=O)CC6)cc5)c(-c5ccc6c(cnn6C(C)C)c5)c4c32)C1 (stereo partly drawn) [Example 61, Methyl((1R,3R)-3-(7-(4-(4-(2-((2-(2,6-dioxopiperidin-3-yl)-1-oxoisoindolin-5-yl)amino)-2-oxoethyl)piperidine-1-carbonyl)phenyl)-8-(1-isopropyl-1H-indazol-5-yl)-3-methyl-2-oxo-3,6-dihydroimidazo[4,5-d]pyrrolo[2,3-b]pyridin-1(2H)-yl)cyclopentyl)carbamate] | C (C: ≥20% to <40% degradation)
